{"source": "patent US20080103154A1", "about": "“3, 4-dihydro-2(IH)-quinolinone and 2(1H)-quinolinone derivatives” (Concert Pharmaceuticals Inc., priority 2006, published 2008)", "origin": "cited, not measured here", "key": {"[1]": {"test_system": "α1", "details": "transfected cell lines expressing rat and human receptors"}, "[2]": {"target": "T1, 5-HT2C (Homo sapiens, UniProt P28335)", "T1 sequence (P28335 33-458)": "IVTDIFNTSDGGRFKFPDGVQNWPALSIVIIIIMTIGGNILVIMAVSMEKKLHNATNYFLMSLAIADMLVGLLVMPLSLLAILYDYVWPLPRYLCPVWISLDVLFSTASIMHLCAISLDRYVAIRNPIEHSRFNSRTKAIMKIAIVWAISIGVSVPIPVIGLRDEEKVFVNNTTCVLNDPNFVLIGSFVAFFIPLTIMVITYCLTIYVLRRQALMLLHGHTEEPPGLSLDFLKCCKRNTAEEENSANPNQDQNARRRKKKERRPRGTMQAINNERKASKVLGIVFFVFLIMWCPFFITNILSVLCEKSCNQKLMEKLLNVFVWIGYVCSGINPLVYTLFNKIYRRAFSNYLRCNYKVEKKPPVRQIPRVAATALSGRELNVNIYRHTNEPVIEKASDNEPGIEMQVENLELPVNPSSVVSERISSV", "details": "transfected cell lines expressing rat and human receptors"}, "[3]": {"target": "T2, 5-HT1A (Homo sapiens, UniProt P08908)", "T2 sequence (P08908 1-422)": "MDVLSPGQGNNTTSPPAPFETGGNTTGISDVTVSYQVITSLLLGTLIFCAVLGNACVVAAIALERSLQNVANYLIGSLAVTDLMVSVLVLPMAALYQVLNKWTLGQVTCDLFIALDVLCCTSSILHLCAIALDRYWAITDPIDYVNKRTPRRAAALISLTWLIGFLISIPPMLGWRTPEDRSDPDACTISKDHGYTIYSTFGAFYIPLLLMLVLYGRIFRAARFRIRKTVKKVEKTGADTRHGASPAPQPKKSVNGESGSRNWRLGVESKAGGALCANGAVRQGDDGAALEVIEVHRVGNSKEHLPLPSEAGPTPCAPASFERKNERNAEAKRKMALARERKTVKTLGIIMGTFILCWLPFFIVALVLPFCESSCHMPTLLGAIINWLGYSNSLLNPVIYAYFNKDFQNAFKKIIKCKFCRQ", "details": "transfected cell lines expressing rat and human receptors"}, "[4]": {"target": "5-HT2A (Homo sapiens, UniProt P28223)", "sequence (P28223 whole entry)": "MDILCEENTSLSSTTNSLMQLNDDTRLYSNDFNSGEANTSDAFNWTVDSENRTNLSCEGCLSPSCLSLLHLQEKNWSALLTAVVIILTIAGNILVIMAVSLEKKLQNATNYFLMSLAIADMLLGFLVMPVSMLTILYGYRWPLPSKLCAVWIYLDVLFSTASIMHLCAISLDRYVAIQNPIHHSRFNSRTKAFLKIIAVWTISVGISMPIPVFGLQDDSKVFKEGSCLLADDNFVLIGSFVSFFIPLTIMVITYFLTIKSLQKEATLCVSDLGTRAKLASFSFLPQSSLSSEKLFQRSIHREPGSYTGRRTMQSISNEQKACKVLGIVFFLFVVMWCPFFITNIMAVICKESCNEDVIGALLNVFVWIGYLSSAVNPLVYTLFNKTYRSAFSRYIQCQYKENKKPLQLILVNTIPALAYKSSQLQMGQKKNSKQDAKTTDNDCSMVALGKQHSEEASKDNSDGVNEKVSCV", "details": "transfected cell lines expressing rat and human receptors"}, "[5]": {"target": "H1 receptors (Homo sapiens, UniProt P35367)", "sequence (P35367 whole entry)": "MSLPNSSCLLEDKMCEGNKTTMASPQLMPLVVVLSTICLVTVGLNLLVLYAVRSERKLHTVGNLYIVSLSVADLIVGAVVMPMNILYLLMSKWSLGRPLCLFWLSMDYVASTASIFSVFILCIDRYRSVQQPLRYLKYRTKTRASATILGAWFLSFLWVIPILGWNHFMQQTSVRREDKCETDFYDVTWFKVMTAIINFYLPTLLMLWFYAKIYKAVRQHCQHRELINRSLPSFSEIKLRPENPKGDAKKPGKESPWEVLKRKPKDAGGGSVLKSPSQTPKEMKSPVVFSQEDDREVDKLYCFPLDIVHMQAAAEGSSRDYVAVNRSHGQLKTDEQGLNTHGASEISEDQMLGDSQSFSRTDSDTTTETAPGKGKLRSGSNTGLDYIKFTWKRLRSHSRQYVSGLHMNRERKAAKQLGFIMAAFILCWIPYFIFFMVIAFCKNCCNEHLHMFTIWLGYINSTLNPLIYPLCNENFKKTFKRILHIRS", "details": "transfected cell lines expressing rat and human receptors"}, "[6]": {"assay": "not given", "remark": "listed apart in the source"}}, "data": [{"smiles": "O=C1CCc2ccc(OCCCCN3CCN(c4cccc(Cl)c4Cl)CC3)cc2N1", "note": "[Aripiprazole]", "values": [{"measurement": "affinity to α1", "setting": "[1]", "value": "moderate affinity"}, {"measurement": "affinity to 5-HT2C", "setting": "[2]", "value": "moderate affinity"}, {"measurement": "affinity binding to 5-HT1A", "setting": "[3]", "value": "high affinity"}, {"measurement": "affinity binding to 5-HT2A", "setting": "[4]", "value": "high affinity"}, {"measurement": "metabolism", "setting": "humans", "value": "extensively metabolized"}, {"measurement": "absorption", "setting": "oral administration in humans", "value": "well absorbed"}, {"measurement": "absolute oral bioavailability", "setting": "oral formulation, humans", "value": 87, "unit": "%"}, {"measurement": "affinity to H1 receptors", "setting": "[5]", "value": "moderate affinity"}]}, {"smiles": "O=c1ccc2ccc(OCCCCN3CCN(c4cccc(Cl)c4Cl)CC3)cc2[nH]1", "note": "[dehydroaripiprazole]", "values": [{"measurement": "share of activity accounted for by metabolite", "setting": "[6]; humans", "value": 20, "unit": "%"}, {"measurement": "potency relative to aripiprazole", "setting": "[6]; metabolite of aripiprazole", "value": "equipotent with aripiprazole"}]}]}
